≈ marks a conversion by molar mass, not a printed value. Bridge positions count the residues as written; N and C are the ends. Square brackets hold non-standard residues; d marks the D form. Peptide text beside a SMILES is read from it. I, II: the chains in the order shown. βAla = NCCC(=O)O Bounds are passed on as bounds.

The values below come from PMC3462775 (PLoS ONE, 2012).

In one data set the test system is P.aeruginosa ATCC 27853. Kind of data set: MIC, standard microdilution assay. It is filed as cell-based, Pseudomonas aeruginosa. The settings on record: Reference strain, wild type; CLSI microdilution, cation-supplemented Mueller-Hinton broth, 5x10^4 CFU/well, 18–20 h at 37°C, triplicate. As for the experimental part:
(§1) MICs were determined using a standard microdilution assay as recommended by the Clinical and Laboratory Standards Institute. Assays were performed in triplicate using cation-supplemented Mueller-Hinton (MH) broth (Becton Dickinson, Franklin Lakes, NJ, USA) and a bacterial inoculum of 5x10^4 CFU/well, in a final volume of 100 µl. The tested concentrations ranged from 0.1 µM to 24 µM for both peptides. Results were recorded after 18–20 h of incubation at 37°C.
(In general: In broth dilution the organism is exposed to a series of concentrations in liquid medium.)

The next data set has as its system E.coli W03BG0025. The class given is cell-based, Escherichia coli. The procedure:
as §1

The test system of data set [1] is S. aureus ATCC 25923 biofilm. The class given is cell-based, Staphylococcus aureus. The settings on record: ATCC 25923, 2 h. The procedure:
Biofilm formation was performed by adapting the procedure described in [39] using the Calgary Biofilm Device (Innovotech, Innovotech Inc. Edmonton, Canada). Briefly, 96-well plates containing the bacterial inoculum were sealed with lids bearing 96 pegs on which the biofilm could build up. The plates were placed in an orbital incubator at 35°C (for P. aeruginosa and E. coli) or 37°C (for S. aureus) for 20 h under agitation at 125 rpm. Once biofilms formed, the lids were removed from the plates and the pegs were rinsed twice with phosphate buffered saline (PBS) to remove planktonic cells. The peg-lid was then transferred to a 96-well challenge microtiter plate, each well containing 200 µl of a twofold serial dilution of each peptide in LB medium. The challenge plate was incubated at 37°C for 2 hours. Peptide activity on pre-formed biofilm was evaluated by two independent methods: (i) visual observation of bacterial growth and (ii) counting of living bacterial cells after peptide treatment. In the first case, the peg-lid was removed from the challenge plate, rinsed with PBS and used to cover a 96-well recovery microtiter plate, each well containing 200 µl LB medium. […] Colony forming units (CFU) were expressed as percentage with respect to control (peptide-untreated biofilms). […]

The target of data set [2] is T1, Pseudomonas aeruginosa elastase (Pseudomonas aeruginosa, UniProt P14756).
T1 construct: purchased Calbiochem
It is filed as in vitro ADME. As to conditions: 1 mM CaCl2 pH 7.8, 37°C; for stability to elastase (in words): HPLC and MS. The procedure:
(§2) Tetrabranched M33-L or M33-D peptides (300 µg) were incubated at 37°C with Staphylococcus aureus aureolysin (3 µg, BioCol GmbH) or Pseudomonas aeruginosa elastase (3 µg, Calbiochem) in 300 µl 20 mM Tris-HCl, 1 mM CaCl2 pH 7.8. At indicated time intervals, 50 µl aliquots were removed, diluted with 950 µl of 0.1% trifluoroacetic acid (TFA)/water and analyzed by HPLC and mass spectrometry. Liquid chromatography was performed on Phenomenex Jupiter C18 analytical column (300 Å, 5 µm, 250×4.6 mm) in a 30 min gradient, using TFA 0.1%/water as solvent A and methanol as solvent B. Mass spectrometry analysis was performed on withdrawn samples and repeated on HPLC-eluted peaks with a Bruker Daltonic ultraflex MALDI TOF/TOF mass spectrometer.

Data set [3] has as its target T2, Staphylococcus aureus aureolysin (Staphylococcus aureus, UniProt P81177).
T2 construct: purchased BioCol GmbH
The class given is in vitro ADME. As to conditions: 1 mM CaCl2 pH 7.8, 37°C; for time of stability / degradation on incubation with aureolysin: 300 µg peptide + 3 µg S. aureus aureolysin in 300 µl 20 mM Tris-HCl, HPLC and MALDI MS read-out. As for the experimental part:
as §2

Data set [4] is described as follows: Calcein release from liposomes mimicking the membrane of E. coli. As to conditions: PE/PG 7∶3 liposomes, 50 µM lipid, 10 min at 20°C, peptide 0,5 to 15 µM, fluorescence 490/517 nm, three independent experiments. The text has this:
To investigate interaction of peptides M33-D and M33-L with the bacterial membrane, including possible perturbation, we used vesicles with two lipid compositions to mimic the membrane of S. aureus (CL/PG, 4∶6 mol/mol) and E. coli (PE/PG, 7∶3 mol/mol). […] The peptide-induced effect was dose-dependent in both vesicle lipid compositions. […] No significant differences in the effects induced by M33-D and M33-L were evident, although the D peptide seemed slightly more efficient towards CL/PG liposomes at doses above 8 µM. […] The greater perturbing effect of both forms of M33 on PE/PG vesicles, compared to vesicles containing cardiolipin, was evident.
Calcein-loaded liposomes of two different composition (PE/PG, 7∶3 mol/mol and CL/PG, 4∶6 mol/mol) were prepared as follows. […] Lipid concentration of vesicles was measured by the method of Stewart and the final concentration used for all measurements was 50 µM. Calcein fluorescence in the vesicles is self-quenched and leakage was measured by relief of quenching; the measurements were carried out at 517 nm, exciting at 490 nm, with a Perkin-Elmer LS 50B spectrofluorimeter. […] Leakage was calculated by the equation: [drawing 1] where F and Ft are fluorescence […] addition of detergent and F0 the fluorescence of intact vesicles.

Where [5] appears, read: 300 µg peptide + 3 µg P. aeruginosa elastase, 20 mM Tris-HCl.

T2 sequence (P81177 209-509): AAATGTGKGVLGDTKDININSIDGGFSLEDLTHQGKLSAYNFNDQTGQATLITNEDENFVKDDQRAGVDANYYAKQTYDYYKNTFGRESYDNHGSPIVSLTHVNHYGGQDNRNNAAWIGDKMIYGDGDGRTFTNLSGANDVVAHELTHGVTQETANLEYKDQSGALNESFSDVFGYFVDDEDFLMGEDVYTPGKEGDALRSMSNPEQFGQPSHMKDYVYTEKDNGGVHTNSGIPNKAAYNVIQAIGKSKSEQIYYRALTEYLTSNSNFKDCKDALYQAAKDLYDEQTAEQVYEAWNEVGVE
T1 sequence (P14756 198-498): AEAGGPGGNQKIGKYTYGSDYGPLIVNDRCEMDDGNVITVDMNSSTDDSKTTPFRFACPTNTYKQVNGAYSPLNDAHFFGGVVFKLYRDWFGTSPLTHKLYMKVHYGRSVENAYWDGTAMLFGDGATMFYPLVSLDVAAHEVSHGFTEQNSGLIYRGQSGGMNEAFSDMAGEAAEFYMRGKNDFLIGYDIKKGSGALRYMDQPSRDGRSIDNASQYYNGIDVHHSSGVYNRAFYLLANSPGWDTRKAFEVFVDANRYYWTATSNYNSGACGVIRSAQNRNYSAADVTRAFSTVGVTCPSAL

In the case of `CC[C@@H](C)[C@@H](NC(=O)[C@@H](CCCCN)NC(=O)[C@H](N)CCCCN)C(=O)N[C@H](CCCNC(=N)N)C(=O)N[C@@H](C(=O)N[C@H](CCCNC(=N)N)C(=O)N[C@H](CC(C)C)C(=O)N[C@H](CO)C(=O)N[C@H](C)C(=O)NCCCC[C@H](NC(=O)[C@@H](C)NC(=O)[C@@H](CO)NC(=O)[C@@H](CC(C)C)NC(=O)[C@@H](CCCNC(=N)N)NC(=O)[C@H](NC(=O)[C@@H](CCCNC(=N)N)NC(=O)[C@H](NC(=O)[C@@H](CCCCN)NC(=O)[C@H](N)CCCCN)[C@H](C)CC)C(C)C)C(=O)NCCCC[C@H](NC(=O)[C@H](CCCCNC(=O)[C@@H](C)NC(=O)[C@@H](CO)NC(=O)[C@@H](CC(C)C)NC(=O)[C@@H](CCCNC(=N)N)NC(=O)[C@H](NC(=O)[C@@H](CCCNC(=N)N)NC(=O)[C@H](NC(=O)[C@@H](CCCCN)NC(=O)[C@H](N)CCCCN)[C@H](C)CC)C(C)C)NC(=O)[C@@H](C)NC(=O)[C@@H](CO)NC(=O)[C@@H](CC(C)C)NC(=O)[C@@H](CCCNC(=N)N)NC(=O)[C@H](NC(=O)[C@@H](CCCNC(=N)N)NC(=O)[C@H](NC(=O)[C@@H](CCCCN)NC(=O)[C@H](N)CCCCN)[C@H](C)CC)C(C)C)C(=O)NCCC(=O)O)C(C)C` [M33-D] (I: H-[dK][dK][dI][dR][dV][dR][dL][dS][dA]KK[βAla]-OH / II: H-[dK][dK][dI][dR][dV][dR][dL][dS][dA]K / III: H-[dK][dK][dI][dR][dV][dR][dL][dS][dA] / IV: H-[dK][dK][dI][dR][dV][dR][dL][dS][dA]; amide I:10-IV:C, I:11-II:C, II:10-III:C; N-terminus assumed), the minimal inhibitory concentration (MIC) against P.aeruginosa ATCC 27853 amounted to 1.5 µM (≈ 7.02 µg/mL); against E.coli W03BG0025 it was 3 µM (≈ 14 µg/mL). The “Minimum bactericidal concentration on biofilm (MBCb)” value in data set [1] is reported as 1.5 µM (≈ 7.02 µg/mL). Besides, the “time of resistance to degradation by elastase” value in data set [2] (300 µg peptide + 3 µg P. aeruginosa elastase in 300 µl 20 mM Tris-HCl, HPLC and MALDI MS read-out) is on record as at least 24 h. Further, in data set [2] (setting [5]), the “stability to elastase (in words)” value is “highly stable”. Also, the “time of stability / degradation on incubation with aureolysin” value in data set [3] is at least 24 h. In data set [4], the “peptide concentration giving total calcein leakage” value is 5 µM.

For the molecule `CC[C@H](C)[C@H](NC(=O)[C@H](CCCCN)NC(=O)[C@@H](N)CCCCN)C(=O)N[C@@H](CCCNC(=N)N)C(=O)N[C@H](C(=O)N[C@@H](CCCNC(=N)N)C(=O)N[C@@H](CC(C)C)C(=O)N[C@@H](CO)C(=O)N[C@@H](C)C(=O)NCCCC[C@H](NC(=O)[C@H](C)NC(=O)[C@H](CO)NC(=O)[C@H](CC(C)C)NC(=O)[C@H](CCCNC(=N)N)NC(=O)[C@@H](NC(=O)[C@H](CCCNC(=N)N)NC(=O)[C@@H](NC(=O)[C@H](CCCCN)NC(=O)[C@@H](N)CCCCN)[C@@H](C)CC)C(C)C)C(=O)NCCCC[C@H](NC(=O)[C@H](CCCCNC(=O)[C@H](C)NC(=O)[C@H](CO)NC(=O)[C@H](CC(C)C)NC(=O)[C@H](CCCNC(=N)N)NC(=O)[C@@H](NC(=O)[C@H](CCCNC(=N)N)NC(=O)[C@@H](NC(=O)[C@H](CCCCN)NC(=O)[C@@H](N)CCCCN)[C@@H](C)CC)C(C)C)NC(=O)[C@H](C)NC(=O)[C@H](CO)NC(=O)[C@H](CC(C)C)NC(=O)[C@H](CCCNC(=N)N)NC(=O)[C@@H](NC(=O)[C@H](CCCNC(=N)N)NC(=O)[C@@H](NC(=O)[C@H](CCCCN)NC(=O)[C@@H](N)CCCCN)[C@@H](C)CC)C(C)C)C(=O)NCCC(=O)O)C(C)C` [M33-L] (I: H-KKIRVRLSAKK[βAla]-OH / II: H-KKIRVRLSAK / III: H-KKIRVRLSA / IV: H-KKIRVRLSA; amide I:10-IV:C, I:11-II:C, II:10-III:C; N-terminus assumed), the MIC in the data set with P.aeruginosa ATCC 27853 was 1.5 µM (≈ 7.02 µg/mL); with E.coli W03BG0025, 0.7 µM (≈ 3.28 µg/mL). For the same molecule, in data set [1], the “Minimum bactericidal concentration on biofilm (MBCb)” value was 12 µM (≈ 56.2 µg/mL). For the same molecule, in data set [2] (setting [5]), the “stability to elastase (in words)” value was “poorly stable”. Also, the “stability after 5 h incubation with elastase (in words)” value in data set [2] (5 h, 300 µg peptide + 3 µg P. aeruginosa elastase, 20 mM Tris-HCl, HPLC peak of intact peptide still present) is listed as “moderate peptide stability”. Moreover, in data set [3], the “time of stability / degradation on incubation with aureolysin” value is at most 1 h. Further, in data set [3] (300 µg peptide + 3 µg S. aureus aureolysin, 20 mM Tris-HCl, HPLC and MS), the “stability to aureolysin (in words)” value was “not at all stable”. For the same molecule, the “peptide concentration giving total calcein leakage” value in data set [4] is reported as 5 µM.

Broadly, the MIC is the lowest concentration that inhibits growth of the organism.
